Here are results for 7 compounds from US10799605B2 (3B PHARMACEUTICALS GMBH, priority 2014, dated 2020).

pEC50, pIC50: −log10 of the molar value. Read-outs that look alike come from different tables or passages of the source. A value given as a limit tells only on which side of the number the result lay.

The subject of series [1] is HT29 cells. The settings on record: 48 h.
For series [2], the target named is T1, NTR1 (Homo sapiens (Human), UniProt P30989). The experiment in a line: Functional Ca2+ mobilisation assay (example part I). Type of series: cell-based. From the text: Ca^2+ ions are usually kept at nanomolar levels in the cytosol of cells, and act in a number of signal transduction pathways as second messengers. […] Changes in calcium ion concentration in standard assay protocols can be readily detected with fluorescent dyes that emit light when changes in intracellular Ca^2+ ion concentration occur. Given the transient nature of these responses, they are often read with instrumentation that has ‘inject and read’ capability.
T1 sequence (P30989 whole entry): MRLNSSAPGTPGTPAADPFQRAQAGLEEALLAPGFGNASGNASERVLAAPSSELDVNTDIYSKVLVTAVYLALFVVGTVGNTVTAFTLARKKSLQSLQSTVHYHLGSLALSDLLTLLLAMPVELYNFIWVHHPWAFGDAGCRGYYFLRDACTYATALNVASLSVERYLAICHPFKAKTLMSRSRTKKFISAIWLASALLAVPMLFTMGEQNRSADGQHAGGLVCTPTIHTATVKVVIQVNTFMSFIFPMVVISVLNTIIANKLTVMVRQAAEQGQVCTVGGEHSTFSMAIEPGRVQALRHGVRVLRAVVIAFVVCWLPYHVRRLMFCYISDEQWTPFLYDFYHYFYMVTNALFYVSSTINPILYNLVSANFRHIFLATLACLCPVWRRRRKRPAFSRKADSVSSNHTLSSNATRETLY
HT29 or NTR1-expressing HEK293 cells were trypsinized and seeded into black flat clear-bottom 96-well plates (Corning, Amsterdam, The Netherlands) at […] cells per well. After 24 h incubation at 37° C. and 5% CO2, cells were washed twice with wash buffer (130 mM NaCl, 5 mM KCl, 10 mM Hepes, 2 mM CaCl2, 10 mM Glucose, pH 7.4) and loaded with 100 μl of Ca5 dye (Molecular Devices, Biberach, Germany) for 1 h at 37° C. and 5% CO2. For agonist assays, serial dilutions of agonistic substances were added to the cells loaded with dye and the change of the fluorescent signal was recorded continually for approx. 90 s using a FlexStation II (Molecular Devices, Biberach, Germany). Addition of wash buffer served as a control. Thus, EC50 concentrations for each conjugate were computed and provided a measure for the potency of the substance. For antagonist assays, cells loaded with 100 μl of Ca5-dye were pre-incubated with serial dilutions of antagonistic substances for 30 min, before the EC80-concentration of agonist was added to the cells and the change of the fluorescent signal was recorded continually for approx. 90 s. Thus, IC50 concentrations were computed for each conjugate and provided a measure for the inhibitory activity of the conjugates at the NTR1.

Series [3] deals with B1R (Homo sapiens (Human), UniProt P46663). The experiment in a line: Radioligand binding assay B1R (bradykinin B1 receptor). The settings on record: read-out: Inhibition [at 100 nM, %]. On the procedure: In order to determine the binding affinity of compounds comprising a radiolabel for B1R, a radioligand binding assay was carried out. A radioligand is a radioactive biochemical substance that is used for diagnosis or for research-oriented study of cellular receptor systems of the body. In […] systems it is often used to quantify the binding of a test molecule to the binding site of radioligand. The higher the affinity of the molecule, the more radioligand is displaced from the binding site. The amount of bound radioligand can be measured by scintillation counting and thereby quantified. This assay is commonly used to calculate binding constants of molecules to receptors.
Sequence of B1R (P46663 whole entry): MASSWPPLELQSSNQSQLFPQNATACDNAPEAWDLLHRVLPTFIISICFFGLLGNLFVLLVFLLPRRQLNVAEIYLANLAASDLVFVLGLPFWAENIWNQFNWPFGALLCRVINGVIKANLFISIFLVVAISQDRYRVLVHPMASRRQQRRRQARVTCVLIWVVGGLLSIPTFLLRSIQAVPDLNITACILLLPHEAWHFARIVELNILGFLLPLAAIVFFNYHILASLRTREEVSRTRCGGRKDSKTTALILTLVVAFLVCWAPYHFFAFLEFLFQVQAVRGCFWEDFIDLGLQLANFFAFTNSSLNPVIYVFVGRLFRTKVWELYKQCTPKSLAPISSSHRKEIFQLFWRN
The B1R radioligand binding assay was performed by Cerep (Celle l'Evescault, France; Catalog reference 1189) according to (Jones et al., Eur J Pharmacol, 1999, 374, 423-433). B1R was prepared from CHO cells recombinantly expressing the human receptor and incubated with 0.35 nM [^3H]desArg^10-KD and serial dilutions of the test compounds. After 60 min incubation at 4° C. and washing to remove unbound ligand, bound radioactivity was measured by scintillation counting.

For series [4] the following is noted: in vivo; cited from earlier work.
The target of series [5] is T2, CCR1 (h) (Homo sapiens (Human), UniProt P32246).
T2 sequence (P32246 whole entry, looked up): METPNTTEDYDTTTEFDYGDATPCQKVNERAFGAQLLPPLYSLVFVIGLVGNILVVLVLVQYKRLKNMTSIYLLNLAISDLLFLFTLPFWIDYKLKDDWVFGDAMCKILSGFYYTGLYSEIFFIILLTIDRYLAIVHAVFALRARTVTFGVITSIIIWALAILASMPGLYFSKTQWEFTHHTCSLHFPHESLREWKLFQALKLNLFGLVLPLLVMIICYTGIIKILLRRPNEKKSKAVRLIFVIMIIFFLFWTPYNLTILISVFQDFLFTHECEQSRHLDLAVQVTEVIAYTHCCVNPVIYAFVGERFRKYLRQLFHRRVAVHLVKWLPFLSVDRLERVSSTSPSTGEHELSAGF
Briefly: ExpresSProfile: C-C chemokine receptor type 1, agonist radioligand. Type of series: binding. To be noted: Reference Compound.

Series [6] is described as follows: Plasma stability assay, human plasma. Type of series: in vitro ADME. On the procedure: (§1) The plasma stability assay was performed to measure the degradation of compounds of the present invention in plasma. This is an important characteristic of a compound as compounds, with the exception of pro-drugs, which rapidly degrade in plasma generally show poor in vivo efficacy.
(§2) The plasma was spiked with a 10 mM analyte solution in dimethyl sulfoxide to a final concentration of 10 μM, vortexed, and aliquotted to 50 μl samples. Two aliquots were stored at −20° C. until further treatment. Another two aliquots were incubated using an Eppendorf Thermomixer at 37° C. for 1, 4, and 24 hours. Sample clean-up was performed using a protein precipitation plate (Phenomenex Strata Impact, 64722-1-324-1) and using acetonitrile as precipitation agent. […] An aliquot of 10 μl was diluted with 90 μl 0.1% aqueous trifluoroacetic acid solution. The determination of the analyte in the clean sample solutions was performed on a Thermo TSQ Quantum Ultra triple quadrupole mass spectrometer equipped with a thermo Surveyor HPLC. The chromatographic separation was carried out on a Phenomenex Kinetex XB-C18 HPLC column (50×2 mm, […] particle size) with gradient elution using a mixture of 0.01% trifluoroacetic acid and 0.05% formic acid in water as eluent A and methanol as eluent B (20% B to 100% in 8 min, 400 μl/min, 40° C.). For mass spectrometric detection the selected reaction monitoring (SRM) was used.
(§3) Quantitation was performed by external matrix calibration using an internal standard.

Series [7] in a line: Plasma stability assay, mouse plasma. Type of series: in vitro ADME. On the procedure: as §1, §2, §3
Series [8] deals with T1, NTR1. Briefly: Functional Ca2+ mobilisation assay (example part II). The settings on record: antagonist assay. Type of series: cell-based. The essentials: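 HT29 or NTR1-expressing HEK293 cells loaded with Ca5 dye for 1 h at 37 °C in buffer at pH 7.4, and fluorescence recorded for about 90 s after addition. EC50 derived from agonist serial dilutions; IC50 from antagonists pre-incubated 30 min before an EC80 agonist challenge.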

In series [9] the target is T1, NTR1. The experiment in a line: Radioligand binding assay NTR1 (example part II). To be noted: 0.05 nM 125I-(Tyr3-neurotensin), 60 min at 4° C.; read-out: IC50 [nM] RLB. In short, it runs like this: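 Membranes from CHO cells recombinantly expressing human NTR1 incubated with 0.05 nM 125I-(Tyr3-neurotensin) and serially diluted test compounds. Bound radioligand quantified by scintillation counting; displacement expressed as IC50.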

Take `COc1cccc(OC)c1-c1cc(C(=O)NC2(C(=O)O)C3CC4CC(C3)CC2C4)nn1-c1ccc(C(=O)N(C)CCCN(C)CCCN(C)C(=O)CCCC(=O)NCCCCC(NC(=O)CCC(=O)NCCCOCCOCCOCCCNC(=O)C(CCCCNC(=O)CCC(=O)O[C@@H](C(=O)O[C@H]2C[C@@]3(O)[C@@H](OC(=O)c4ccccc4)[C@@H]4[C@]5(OC(C)=O)CO[C@@H]5C[C@H](O)[C@@]4(C)C(=O)[C@H](OC(C)=O)C(=C2C)C3(C)C)[C@@H](NC(=O)c2ccccc2)c2ccccc2)NC(=O)CCC(=O)NCCCOCCOCCOCCCNC(=O)CCCC(=O)N(C)CCCN(C)CCCN(C)C(=O)c2ccc(-n3nc(C(=O)NC4(C(=O)O)C5CC6CC(C5)CC4C6)cc3-c3c(OC)cccc3OC)c(C(C)C)c2)C(N)=O)cc1C(C)C` (some centres unmarked) [(20), 1206-Glutar-Ttds-Lys(Taxol-Succinyl)-Ttds-(ε-Lys-NH2)-Glutar-1206]: the “Concentration [μM] at 20% cytotoxicity” value in [1] (HT29 cells, LDH in supernatant) was found to be 18 µM. Also, in series [2], the pEC50 was under 4.30 and the pIC50 was 7.49.
Take `CC(=O)O[C@H]1C(=O)[C@@]2(C)[C@H]([C@H](OC(=O)c3ccccc3)[C@]3(O)C[C@H](OC(=O)[C@H](O)[C@@H](NC(=O)c4ccccc4)c4ccccc4)C(C)=C1C3(C)C)[C@]1(OC(C)=O)CO[C@@H]1C[C@@H]2O` [Paclitaxel, reference compound]: the “Concentration [μM] at 20% cytotoxicity” value in series [1] (human) stood at 70 µM.
In the case of `CC[C@H](C)[C@H](NC(=O)[C@@H](Cc1ccc2ccccc2c1)NC(=O)[C@H](CO)NC(=O)[C@](C)(Cc1ccccc1)NC(=O)CNC(=O)[C@@H]1CCCN1C(=O)[C@@H]1C[C@@H]2CCCC[C@@H]2N1C(=O)[C@H](CCCNC(=N)N)NC(=O)[C@H](CCCN)NC(=O)CCC(=O)NCCCOCCOCCOCCCNC(=O)[C@H](CCCCNC(=O)CN1CCN(CC(=O)O)CCN(CC(=O)O)CCN(CC(=O)O)CC1)NC(=O)CCC(=O)NCCCOCCOCCOCCCNC(=O)CCCC(=O)N(C)CCCN(C)CCCN(C)C(=O)c1ccc(-n2nc(C(=O)NC3(C(=O)O)C4CC5CC(C4)CC3C5)cc2-c2c(OC)cccc2OC)c(C(C)C)c1)C(=O)O` (stereo partly drawn) [(27), 1206-Glutar-Ttds-Lys(DOTA)-Ttds-GABA-Orn-Arg-Oic-Pro-Gly-Amf-Ser-nal-Ile-OH], the inhibition at 0.1 µM in series [3] stood at 17%.
The same measure, in the same setting: to `COc1cccc(OC)c1-c1cc(C(=O)NC2(C(=O)O)C3CC4CC(C3)CC2C4)nn1-c1ccc(C(=O)N(C)CCCN(C)CCCN(C)C(=O)CCCC(=O)NCCCOCCOCCOCCCNC(=O)CCC(=O)N[C@@H](CCCCNC(=O)CN2CCN(CC(=O)O)CCN(CC(=O)O)CCN(CC(=O)O)CC2)C(=O)NCCCOCCOCCOCCCNC(=O)CCC(=O)N[C@@H](CCCCN)C(=O)N[C@@H](CCCNC(=N)N)C(=O)N2CCC[C@H]2C(=O)N2C[C@H](O)C[C@H]2C(=O)NCC(=O)N[C@@H](CC2CCCCC2)C(=O)N[C@@H](CO)C(=O)N2CCC[C@H]2C(=O)N[C@@H](CC(C)C)C(=O)O)cc1C(C)C` (stereo partly drawn) [(26), 1206-Glutar-Ttds-Lys(DOTA)-Ttds-GABA-Lys-Arg-Pro-Hyp-Gly-Cha-Ser-Pro-Leu-OH] belongs 20%.
With `COc1cccc(OC)c1-c1cc(C(=O)NC2(C(=O)O)C3CC4CC(C3)CC2C4)nn1-c1ccc(C(=O)N(C)CCCN(C)C)cc1C(C)C` (centres unmarked) [SR142948, 2-[(5-(2,6-Dimethoxy-phenyl)-1-{4-[(3-dimethylamino-propyl)-methyl-carbamoyl]-2-isopropyl-phenyl}-1H-pyrazole-3-carbonyl)-amino]-adamantane-2-carboxylic acid], in series [4], the blood-brain barrier crossing result was “cross the blood-brain barrier”.
Take MIP-1alpha: in series [5], the “nH Ref” value is listed as 1.1.
Regarding `COc1cccc(OC)c1-c1cc(C(=O)NC2(C(=O)O)C3CC4CC(C3)CC2C4)nn1-c1ccc(C(=O)N(CCCNC(=O)CN2CCN(CC(=O)O)CCN(CC(=O)O)CCN(CC(=O)O)CC2)CCCN(C)C)cc1C(C)C` (centres unmarked) [(Va), 2-{[1-{4-[(3-DOTA-amino-propyl)-(3-dimethylamino-propyl)-carbamoyl]-2-isopropyl-phenyl}-5-(2,6-dimethoxy-phenyl)-1H-pyrazole-3-carbonyl]-amino}-adamantane-2-carboxylic acid], the “stability in human plasma” value in series [6] is given as “highly stable”. The “% remaining after 24 h incubation, Human plasma” value in [6] (10 μM, 37° C., 24 h) was over 70%. Also, in [7], the “stability in mouse plasma” value is “highly stable”. Further, the “% remaining after 24 h incubation, Mouse plasma” value in [7] (10 μM, 37° C., 24 h) is reported as over 60%. In addition, the figures for the IC50 in series [8] and in [9] were 12.6 nM and 3.4 nM, respectively.
